Measured values as given in patent US7863295B2, “Treatments for neuropathy” (Children's Medical Center Corporation, priority 2008, dated 2011).

Legend:
GFAP-DN-erbB4 mice [1] = test: Electron microscopy / morphometric analysis of Remak bundles in GFAP-DN-erbB4 mice; assay type: in vivo, mouse; conditions: 4-week topical treatment, 1.2 mM cream
Protocol: (§1) Preparation and Use of XIB4035. The cream containing XIB4035 (1.2 mM, Matrix Scientific, Columbia, S.C.) consisted of N-methyl-pyrrolidone (5%), isopropyl myristate (5%) and petroleum jelly (90%). Control cream had the same ingredients without XIB4035. Cream was applied twice daily to the hind paws of isoflurane anesthetized mice starting at P21 for a period of 9 days (for analysis of cell death in sciatic nerves) or 4 weeks (all other studies using GFAP-DN-erbB4). Treatment of RTX-induced neuropathy began at the time of RTX injection or 12 hours after RTX injection and proceeded twice daily for a period of one week.
(§2) Plastic Embedding and Electron Microscopy. Tissue was prepared as in (6). Briefly, mice were perfused intracardially with 2% paraformaldehyde, 2.5% gluteraldehyde and 0.03% picric acid in 0.1 M cacodylate buffer (pH 7.2). Tissue was post-fixed overnight at 4° C. and embedded in Epon. Ultrathin sections were cut, collected on cellodin-coated grids and stained using uranyl acetate and lead citrate. Photographs were taken using the Tecnai G^2 Spirit BioTWIN transmission electron microscope.

RTX-injected mice [2] = test: Hot plate test in resiniferatoxin (RTX)-induced SFN; assay type: in vivo, mouse
From the text: (§3) As it is unlikely that SFN is always caused by glial dysfunction, we considered it necessary to test the effectiveness of XIB4035 treatment on SFN resulting from a different pathogenic mechanism. Therefore we tested the efficacy of our therapeutic approach in resiniferatoxin (RTX)-induced SFN (9). RTX-induced SFN involves intraperitoneal injection of an ultrapotent capsaicin analog that targets c-fiber terminals by binding to and activating TRPV1 channels resulting in calcium influx, which induces loss of skin innervation and loss of thermal nociception (9). After RTX injection, mice were either treated immediately with XIB4035 or treatment was delayed by 12 hours. Both treatment paradigms yielded similar results.
(§4) Furthermore, innervation of the skin was preserved as a result of XIB4035 treatment in RTX-injected mice. […] Both c-fiber area and the number of fibers per Remak bundle were improved by treatment with XIB4035 in RTX-induced SFN.
(§5) Animals and induction of neuropathy using RTX. Transgenic mouse lines used were as previously described (6, 8). Animals were kept in the animal facility with free access to food and water. […] Paw withdrawal latency was measured as the time required for the mouse to visibly respond to the thermal stimulus, e.g. licking paws, lifting paws, or jumping off of the plate. […] The threshold was determined as the lowest force that evoked a visible withdrawal response. […]

[3] = test system: GFAP-DN-erbB4 and wild type mice; test: Mechanical sensitivity (von Frey filaments) after topical XIB4035 cream; assay type: in vivo; conditions: all groups (GFAP-DN-erbB4 and wild type) after 4 weeks of topical treatment, 1.2 mM cream
Protocol: (§6) We generated a cream containing XIB4035 (1.2 mM) and applied it directly to the hind paws of GFAP-DN-erbB4 and wild type mice twice daily for a period of 4 weeks starting at the time of weaning (P21). […] Thus, these experiments would test whether activation of Ret signaling has therapeutic effects after disease onset. To control for potential effects of the control cream, mice of both genotypes were treated in the same way with the base cream without the drug. Mice were tested for responses to noxious thermal stimulus prior to the initiation of treatment and every 7 days throughout the treatment period. […] Together, these findings indicate that topical treatment with XIB4035 preserves the ability of mice with SFN to respond to noxious heat stimulus without inducing hypersensitivity.
as §5, with “water. Behavioral experiments were performed in a quiet environment at the same time of day.” for “water.”

RTX-injected mice [4] = test: Remak bundle structure (electron microscopy) in RTX-induced SFN; assay type: in vivo, mouse; conditions: topical cream 1.2 mM twice daily for one week
From the text: as §3, §4, §1, §2

GFR[…]1 GDNF receptor [5] = target: T1, GFR[…]1 GDNF receptor (Homo sapiens, UniProt P56159); conditions: human cells; reference 11; cited from earlier work
T1 sequence (P56159 25-429): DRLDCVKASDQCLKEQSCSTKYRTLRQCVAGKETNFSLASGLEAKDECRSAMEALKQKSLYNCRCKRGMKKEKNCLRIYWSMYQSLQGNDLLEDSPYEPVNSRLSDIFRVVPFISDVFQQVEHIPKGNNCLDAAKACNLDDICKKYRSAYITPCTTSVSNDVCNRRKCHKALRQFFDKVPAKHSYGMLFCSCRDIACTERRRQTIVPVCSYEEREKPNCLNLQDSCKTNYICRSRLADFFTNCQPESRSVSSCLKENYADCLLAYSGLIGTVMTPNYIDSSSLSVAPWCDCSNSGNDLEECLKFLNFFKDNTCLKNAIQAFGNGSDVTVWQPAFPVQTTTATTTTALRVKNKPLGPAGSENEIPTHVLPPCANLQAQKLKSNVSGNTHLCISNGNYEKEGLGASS

GFR[…]1 GDNF receptor [6] = target: T2, GFR[…]1 GDNF receptor (Mus musculus, UniProt P97785); conditions: murine cells; reference 11; cited from earlier work
T2 sequence (P97785 25-430): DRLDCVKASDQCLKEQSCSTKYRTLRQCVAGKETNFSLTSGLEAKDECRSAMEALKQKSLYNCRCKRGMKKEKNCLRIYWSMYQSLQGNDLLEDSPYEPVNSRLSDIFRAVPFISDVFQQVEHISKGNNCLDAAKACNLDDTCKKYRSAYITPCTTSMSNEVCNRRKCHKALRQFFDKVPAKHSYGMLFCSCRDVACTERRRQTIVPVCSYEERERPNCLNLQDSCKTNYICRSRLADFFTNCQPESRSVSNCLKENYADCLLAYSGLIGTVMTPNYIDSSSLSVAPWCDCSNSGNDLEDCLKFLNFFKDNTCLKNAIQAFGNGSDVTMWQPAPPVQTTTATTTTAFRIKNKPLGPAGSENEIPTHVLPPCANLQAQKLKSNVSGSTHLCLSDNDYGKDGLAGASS

wild type mice [7] = test: Footpad skin innervation (PGP9.5 immunohistochemistry) in wild type mice; assay type: in vivo, mouse; conditions: 4-week topical treatment, 1.2 mM cream
Protocol: as §1
(§7) Immunohistochemistry. Mice were anesthetized with 2.5% Avertin and footpad skin was removed and immersion fixed in 4% paraformaldehyde, 14% picric acid in 0.1 M phosphate buffer (pH 7.3) overnight at 4° C. and cryoprotected in 20% sucrose overnight at 4° C. Tissues were embedded in OCT and sectioned at 30 µm and stained as floating sections by washing 3 times for 5 minutes in PBS+0.1% Triton-X 100, blocked for 30 minutes in PBS+0.1% Triton-X 100+10% normal goat serum and then incubated, PGP9.5 rabbit polyclonal antibody (Ultraclone, 1:1000), overnight at 4° C. Sections were washed 3 times for 10 minutes in PBS+0.1% Triton-X 100 then incubated in donkey anti-rabbit Alexa-488 (Invitrogen) 1:300 for 2 hours at room temperature. […]

GFAP-DN-erbB4 mice [8] = test: Hot plate test (thermal nociception) in GFAP-DN-erbB4 mice treated topically with XIB4035 cream; assay type: in vivo, mouse; conditions: cream 1.2 mM on hind paws twice daily for 4 weeks from P21, vs control cream
Protocol: as §6
as §5, with “water. Behavioral experiments were performed in a quiet environment at the same time of day.” for “water.”

wild type mice [9] = test: Hot plate test (thermal nociception) in wild type mice treated topically with XIB4035 cream; assay type: in vivo; conditions: cream 1.2 mM on hind paws twice daily for 4 weeks from P21
Protocol: as §6
as §5, with “water. Behavioral experiments were performed in a quiet environment at the same time of day.” for “water.”

GFAP-DN-erbB4 mice [10] = test: Footpad skin innervation (PGP9.5 immunohistochemistry) in GFAP-DN-erbB4 mice; assay type: in vivo, mouse; conditions: 4-week topical treatment, 1.2 mM cream
Protocol: as §1, §7

GFAP-DN-erbB4 mice [11] = test: Cell death detection (TUNEL) in sciatic nerves of GFAP-DN-erbB4 mice; assay type: in vivo, mouse; conditions: sciatic nerve, topical cream 1.2 mM twice daily for 9 days from P21
Protocol: as §1
Cell Death Detection. Sciatic nerves were dissected from mice perfused with 4% paraformaldehyde in PBS and fixed overnight at 4° C. Nerves were embedded in OCT and 16 µm thick transverse sections were processed for TUNEL as follows. Sections were washed 3 times for 5 minutes with PBS followed by proteinase K digestion (0.02 U/mL) in 10 mM TRIS/HCl pH 7.5 for 30 minutes at 37° C. Digested sections were fixed with 4% paraformaldehyde at room temperature for 20 minutes followed by 3 washes in PBS for 5 minutes. Apoptotic nuclei were identified using the In Situ Cell Death Detection Kit (Roche). Nuclei were stained with DAPI and sections were mounted with Gel-Mount.

RTX-injected mice [12] = test: Skin innervation in RTX-induced SFN; assay type: in vivo, mouse; conditions: topical cream 1.2 mM twice daily for one week
From the text: as §3, §4
Preparation and Use of XIB4035. The cream containing XIB4035 (1.2 mM, Matrix Scientific, Columbia, S.C.) consisted of N-methyl-pyrrolidone (5%), isopropyl myristate (5%) and petroleum jelly (90%). Control cream had the same ingredients without XIB4035. […]

## CCN(CC)CCCC(C)Nc1cc(/C=C/c2ccccc2Cl)nc2cc(Cl)ccc12 (centres unmarked) [XIB4035, N4-{7-chloro-2-[(E)-2-(2-chloro-phenyl)-vinyl]-quinolin-4-yl}-N1,N1-diethyl-pentane-1,4-diamine]
GFAP-DN-erbB4 mice [1]
  degeneration of Remak bundles and c-fiber axons: prevented the degeneration of Remak bundles and c-fiber axons
  number of c-fibers per Remak bundle (morphometric analysis): preserved
  size of c-fiber axons (morphometric analysis): preserved
RTX-injected mice [2]; RTX model, cream 1.2 mM twice daily for one week, started at RTX injection or 12 hours later (similar results)
  thermal nociception: greatly improved thermal nociception
RTX-injected mice [2]; RTX-injected mice, seven days after RTX, vs control cream
  ability to respond to noxious heat (paw withdrawal latency): remarkable preservation of their ability to respond to noxious heat
[3]
  response thresholds to punctate mechanical stimuli (mechanoreception): no effect on mechanoreception
RTX-injected mice [4]; RTX-induced SFN
  c-fiber area: improved
  number of fibers per Remak bundle: improved
RTX-injected mice [4]; RTX-injected mice
  Remak bundle structure: significantly improved
GFR[…]1 GDNF receptor [5]
  activation of the Ret co-receptor by binding to the GDNF receptor: activate the Ret co-receptor
GFR[…]1 GDNF receptor [6]
  activation of the Ret co-receptor by binding to the GDNF receptor: activate the Ret co-receptor
Wild type mice [7]
  density of nerve terminals in skin: increased the density of nerve terminals
GFAP-DN-erbB4 mice [8]
  thermal nociception (hot plate, response to noxious thermal stimulus): dramatic preservation of thermal nociception
Wild type mice [9]
  behavior in response to noxious thermal stimulus: remained normal
GFAP-DN-erbB4 mice [10]
  sensory nerve terminals in the footpad skin: prevented degeneration of sensory nerve terminals
GFAP-DN-erbB4 mice [11]
  NMSC apoptosis: significantly reduced
RTX-injected mice [12]
  innervation of the skin: preserved
